According to US20240270762A1, “PENICILLIN-BINDING PROTEIN INHIBITORS” (priority 2021, published 2024):
Converted amounts (≈) assume the structure as drawn.

Columns and labels:
[1] = molecular target: T1, PBP3 from Pseudomonas aeruginosa (PAO1) (Pseudomonas aeruginosa, UniProt G3XD46); test: Bocillin-FL fluorescence polarization competition binding, P. aeruginosa PBP3; conditions: Binding affinity to P. aeruginosa PBP3; fluorescence polarization competition binding assay using Bocillin-FL; read-out: P. aeruginosa PBP3 Potency
T1 construct: made in house
Procedure, shortened: (§1)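 Purified PBP was preincubated with inhibitor (E. coli PBP3 1.5 μM, 30 min; P. aeruginosa PBP3 0.75 μM, A. baumannii PBP3 0.2 μM and PBP1a 1 μM, 15 min), then Bocillin-FL (0.1 μM; 0.05 μM for PBP1a) added and FP read up to 60 min. EC50 = 50% loss of bound probe.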

[2] = molecular target: T2, PBP3 from Acinetobacter baumannii (ATCC 19606) (Acinetobacter baumannii, UniProt A0ABX6CK25); test: Bocillin-FL fluorescence polarization competition binding, A. baumannii PBP3; conditions: fluorescence polarization competition binding assay using Bocillin-FL; read-out: A. baumannii PBP3 Potency
T2 sequence (A0ABX6CK25 64-610): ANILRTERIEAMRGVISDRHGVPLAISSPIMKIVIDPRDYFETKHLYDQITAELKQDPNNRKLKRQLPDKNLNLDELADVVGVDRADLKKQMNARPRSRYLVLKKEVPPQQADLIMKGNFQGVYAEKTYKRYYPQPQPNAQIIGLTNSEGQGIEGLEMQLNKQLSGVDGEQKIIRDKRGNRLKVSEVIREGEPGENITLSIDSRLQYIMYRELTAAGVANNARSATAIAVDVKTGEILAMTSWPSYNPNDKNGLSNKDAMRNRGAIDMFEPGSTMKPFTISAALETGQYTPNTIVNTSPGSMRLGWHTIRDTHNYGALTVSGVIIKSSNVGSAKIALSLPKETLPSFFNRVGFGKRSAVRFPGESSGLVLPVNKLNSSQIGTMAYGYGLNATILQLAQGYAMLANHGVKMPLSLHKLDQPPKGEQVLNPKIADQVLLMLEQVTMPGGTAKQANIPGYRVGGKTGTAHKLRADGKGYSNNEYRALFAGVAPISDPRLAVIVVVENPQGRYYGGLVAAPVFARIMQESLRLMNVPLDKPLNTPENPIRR
Procedure, shortened: as §1

A. baumannii ATCC 17978 = test: microbe, parasite or virus in culture; format: cell-based; conditions: Acinetobacter baumannii, ATCC17978, read-out: MIC, A. baumannii ATCC 17978
A. baumannii ATCC 19606 = test: microbe, parasite or virus in culture; format: cell-based; conditions: Acinetobacter baumannii, ATCC19606, read-out: MIC, A. baumannii ATCC 19606
P. aeruginosa ATCC 35151 = test: microbe, parasite or virus in culture; format: cell-based; conditions: Pseudomonas aeruginosa, ATCC35151, read-out: Minimum inhibitory concentration, P. aeruginosa ATCC 35151
P. aeruginosa CDC-0095 = test: microbe, parasite or virus in culture; format: cell-based; conditions: Pseudomonas aeruginosa, CDC0095, read-out: Minimum inhibitory concentration, P. aeruginosa CDC-0095
A. baumannii CDC-0033 = test: microbe, parasite or virus in culture; format: cell-based; conditions: Acinetobacter baumannii, CDC0033, read-out: MIC, A. baumannii CDC-0033
A. baumannii CDC-0036 = test: microbe, parasite or virus in culture; format: cell-based; conditions: Acinetobacter baumannii, CDC0036, read-out: MIC, A. baumannii CDC-0036
[3] = test system: B. thailandensis ATCC 700388; test: microbe, parasite or virus in culture; format: cell-based; conditions: Burkholderia thailandensis, ATCC700388, read-out: Minimum inhibitory concentration (MIC), B. thailandensis ATCC 700388
P. aeruginosa CDC-0110 = test: microbe, parasite or virus in culture; format: cell-based; conditions: Pseudomonas aeruginosa, CDC0110, read-out: Minimum inhibitory concentration, P. aeruginosa CDC-0110

T1 sequence (G3XD46 whole entry): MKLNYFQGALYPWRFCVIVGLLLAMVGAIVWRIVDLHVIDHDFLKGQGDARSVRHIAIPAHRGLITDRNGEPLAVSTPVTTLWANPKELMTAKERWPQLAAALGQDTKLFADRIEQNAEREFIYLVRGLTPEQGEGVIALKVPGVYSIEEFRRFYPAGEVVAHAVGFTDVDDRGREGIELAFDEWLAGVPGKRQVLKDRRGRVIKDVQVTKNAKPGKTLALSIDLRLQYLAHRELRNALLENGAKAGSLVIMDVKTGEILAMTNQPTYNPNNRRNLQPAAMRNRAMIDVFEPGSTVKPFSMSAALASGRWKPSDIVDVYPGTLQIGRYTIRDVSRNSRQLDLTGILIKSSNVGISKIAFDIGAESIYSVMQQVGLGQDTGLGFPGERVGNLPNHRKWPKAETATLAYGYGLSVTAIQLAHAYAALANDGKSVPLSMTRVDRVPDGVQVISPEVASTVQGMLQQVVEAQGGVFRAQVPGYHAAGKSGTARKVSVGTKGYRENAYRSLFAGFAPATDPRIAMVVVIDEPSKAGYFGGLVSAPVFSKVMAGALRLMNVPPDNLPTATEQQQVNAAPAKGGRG

| SMILES | IC50 [1] [µM] | IC50 [2] [µM] | MIC (A. baumannii ATCC 17978) [µg/mL] | MIC (A. baumannii ATCC 19606) [µg/mL] | MIC (P. aeruginosa ATCC 35151) [µg/mL] | MIC (P. aeruginosa CDC-0095) [µg/mL] | MIC (A. baumannii CDC-0033) [µg/mL] | MIC (A. baumannii CDC-0036) [µg/mL] | MIC [3] [µg/mL] | MIC (P. aeruginosa CDC-0110) [µg/mL] |
| --- | --- | --- | --- | --- | --- | --- | --- | --- | --- | --- |
| O=C(O)c1c(F)ccc2c1OB(O)[C@@H](NC(=O)[C@H](NC(=O)N1CCN(C3CCN(C(=O)Nc4cccc(O)c4Cl)CC3)C(=O)C1=O)c1cc(F)c(O)c(O)c1Cl)C2 [Example 482, (R)-3-((R)-2-(4-(1-((2-chloro-3-hydroxyphenyl)carbamoyl)piperidin-4-yl)-2,3-dioxopiperazine-1-carboxamido)-2-(2-chloro-5-fluoro-3,4-dihydroxyphenyl)acetamido)-7-fluoro-2-hydroxy-3,4-dihydro-2H-benzo[e][1,2]oxaborinine-8-carboxylic acid] | < 10 | < 10 | < 1 | < 1 | < 1 | < 1 | 2 to 4 (≈ 2.39 to 4.79 µM) | < 1 | < 1 | 2 to 4 (≈ 2.39 to 4.79 µM) |
| O=C(O)c1c(F)ccc2c1OB(O)[C@@H](NC(=O)[C@H](NC(=O)N1CCN(C3CCN(C(=O)c4ccncc4)CC3)C1=O)c1cc(F)c(O)c(O)c1Cl)C2 [Example 461, (R)-3-((R)-2-(2-chloro-5-fluoro-3,4-dihydroxyphenyl)-2-(3-(1-isonicotinoylpiperidin-4-yl)-2-oxoimidazolidine-1-carboxamido)acetamido)-7-fluoro-2-hydroxy-3,4-dihydro-2H-benzo[e][1,2]oxaborinine-8-carboxylic acid] | < 10 | < 10 | < 1 | < 1 | < 1 | < 1 | < 1 | < 1 | < 1 | < 1 |
| O=C(O)c1c(F)ccc2c1OB(O)[C@@H](NC(=O)[C@H](NC(=O)N1CCN(C3CCN(C(=O)c4ccc(F)c(O)c4F)CC3)C1=O)c1cc(F)c(O)c(O)c1Cl)C2 (single isomer, unassigned) [Example 437] | < 10 | < 10 | < 1 | < 1 | < 1 | < 1 | < 1 | < 1 | < 1 | < 1 |
| O=C(O)c1c(F)ccc2c1OB(O)[C@@H](NC(=O)C(NC(=O)N1CCN(C3CCN(C(=O)Nc4cc(O)cc(Cl)c4)CC3)C(=O)C1=O)c1cc(F)c(O)c(O)c1Cl)C2 (stereo partly drawn) [Example 484, (3R)-3-(2-(2-chloro-5-fluoro-3,4-dihydroxyphenyl)-2-(4-(1-((3-chloro-5-hydroxyphenyl)carbamoyl)piperidin-4-yl)-2,3-dioxopiperazine-1-carboxamido)acetamido)-7-fluoro-2-hydroxy-3,4-dihydro-2H-benzo[e][1,2]oxaborinine-8-carboxylic acid] | < 10 | < 10 | < 1 | < 1 | < 1 | 2 to 4 (≈ 2.39 to 4.79 µM) | 2 to 4 (≈ 2.39 to 4.79 µM) | 2 to 4 (≈ 2.39 to 4.79 µM) | 32 to 64 (≈ 38.3 to 76.6 µM) | 2 to 4 (≈ 2.39 to 4.79 µM) |
| O=C(O)c1c(F)ccc2c1OB(O)[C@@H](NC(=O)[C@@H](NC(=O)N1CCN(C3CCN(C(=O)c4ccc(O)cc4)CC3)C1=O)c1cc(F)c(O)c(O)c1Cl)C2 (single isomer, unassigned) [Example 462] | 10 to 50 | < 10 | < 1 | 8 to 16 (≈ 10.6 to 21.1 µM) | < 1 | 32 to 64 (≈ 42.2 to 84.4 µM) | 32 to 64 (≈ 42.2 to 84.4 µM) | 32 to 64 (≈ 42.2 to 84.4 µM) | > 128 | 8 to 16 (≈ 10.6 to 21.1 µM) |
| O=C(O)c1c(F)ccc2c1OB(O)[C@@H](NC(=O)[C@H](NC(=O)N1CCN(C3CCN(C(=O)c4cccc(O)c4F)CC3)C1=O)c1cc(F)c(O)c(O)c1Cl)C2 (single isomer, unassigned) [Example 431] | < 10 | < 10 | < 1 | < 1 | < 1 | < 1 | < 1 | < 1 | < 1 | < 1 |
| O=C(O)c1c(F)ccc2c1OB(O)[C@@H](NC(=O)C(NC(=O)N1CCN(C3CCN(S(=O)(=O)Cc4cccc(O)c4)CC3)C(=O)C1=O)c1cc(F)c(O)c(O)c1Cl)C2 (stereo partly drawn) [Example 485, (3R)-3-(2-(2-chloro-5-fluoro-3,4-dihydroxyphenyl)-2-(4-(1-((3-hydroxybenzyl)sulfonyl)piperidin-4-yl)-2,3-dioxopiperazine-1-carboxamido)acetamido)-7-fluoro-2-hydroxy-3,4-dihydro-2H-benzo[e][1,2]oxaborinine-8-carboxylic acid] | < 10 | < 10 | < 1 | < 1 | < 1 | < 1 | < 1 | < 1 | 2 to 4 (≈ 2.39 to 4.78 µM) | < 1 |
| O=C(NCCCS(=O)(=O)N1CCN(C(=O)N[C@H](C(=O)N[C@H]2Cc3ccc(F)c(C(=O)O)c3OB2O)c2ccc(P(=O)(O)O)cc2)C1=O)c1ccc(O)c(O)c1Cl (single isomer, unassigned) [Example 169] | > 250 | 10 to 50 | > 128 | > 128 | > 128 | > 128 | > 128 | > 128 | > 128 | > 128 |
| O=C(O)c1c(F)ccc2c1OB(O)[C@@H](NC(=O)C(NC(=O)N1CCN(C3CCN(C(=O)Nc4ccc(F)c(O)c4)CC3)C(=O)C1=O)c1cc(F)c(O)c(O)c1Cl)C2 (stereo partly drawn) [Example 480, (3R)-3-(2-(2-chloro-5-fluoro-3,4-dihydroxyphenyl)-2-(4-(1-((4-fluoro-3-hydroxyphenyl)carbamoyl)piperidin-4-yl)-2,3-dioxopiperazine-1-carboxamido)acetamido)-7-fluoro-2-hydroxy-3,4-dihydro-2H-benzo[e][1,2]oxaborinine-8-carboxylic acid] | < 10 | < 10 | < 1 | < 1 | < 1 | < 1 | 2 to 4 (≈ 2.44 to 4.88 µM) | 2 to 4 (≈ 2.44 to 4.88 µM) | 2 to 4 (≈ 2.44 to 4.88 µM) | 2 to 4 (≈ 2.44 to 4.88 µM) |
| O=C(O)c1c(F)ccc2c1OB(O)[C@@H](NC(=O)[C@H](NC(=O)N1CCN(C3CCN(C(=O)c4ccc(F)c(O)c4)CC3)C1=O)c1cc(F)c(O)c(O)c1Cl)C2 (single isomer, unassigned) [Example 435] | < 10 | 10 to 50 | < 1 | < 1 | < 1 | < 1 | < 1 | < 1 | < 1 | < 1 |
| O=C(O)c1c(F)ccc2c1OB(O)[C@@H](NC(=O)[C@H](NC(=O)N1CCN(C3CCN(C(=O)c4ccc(F)c(O)c4Cl)CC3)C1=O)c1cc(F)c(O)c(O)c1Cl)C2 [Example 438, (R)-3-((R)-2-(3-(1-(2-chloro-4-fluoro-3-hydroxybenzoyl)piperidin-4-yl)-2-oxoimidazolidine-1-carboxamido)-2-(2-chloro-5-fluoro-3,4-dihydroxyphenyl)acetamido)-7-fluoro-2-hydroxy-3,4-dihydro-2H-benzo[e][1,2]oxaborinine-8-carboxylic acid] | < 10 | < 10 | < 1 | < 1 | < 1 | < 1 | < 1 | < 1 | < 1 | < 1 |
